Laboratory results taken from PubChem BioAssay AID1996.
In brackets after ≈: the same amount, converted by molar mass.

Conditions: buffer; pH 7.4; 200.0 µM

| Structure (SMILES) | solubility kinetic [µg/mL] |
| --- | --- |
| CC(C)(C)CC(=O)N1CCN(Cc2ccc3c(c2)OCO3)CC1 | > 47.8 |
| COc1ccc2c(c1)CC(C(=O)Nc1ccc(Cl)cc1)/C(=N/O)O2 (stereo not given) | < 0.4 |
| Cc1cccc(Nc2ccccc2C(=O)O)c1C | > 36.2 |
| CCC1CCC2(CC1)SCC(=O)N2c1ccccc1 (stereo not given) | 5.7 (≈ 20.7 µM) |
| OC1=C(O)c2nc3cc(F)ccc3nc21 | > 30.6 |
| COc1ccccc1CC(=O)N(Cc1ccccc1)c1ccc(C)cc1 | 10 (≈ 28.9 µM) |
| CCOC(=O)C1=C(N)Oc2cc(O)ccc2C1c1ccccc1 (stereo not given) | < 0.7 |
| COc1ccc(C(=O)Nc2ccc(Nc3ccccc3)cc2)cc1OC | < 0.4 |
| CCN(CC)c1ccc(NC(=S)NCC2CCCO2)cc1 (stereo not given) | 34.1 (≈ 111 µM) |
| COC(=O)c1ccc2c(=O)[nH]c(COC(=O)c3[nH]c(C)c(C(C)=O)c3C)nc2c1 | 18.1 (≈ 45.5 µM) |
| CC(C)CCNC(=O)C(=O)Nc1ccccc1 | 2.6 (≈ 11.1 µM) |
| CC(=O)Nc1ccc(OCC(O)Cn2cncn2)cc1 (stereo not given) | > 41.4 |
| Cc1cccc(OCc2nc(-c3ccc(Br)o3)no2)c1 | 1 (≈ 2.98 µM) |
| O=C(Nc1cccnc1)c1cccc(S(=O)(=O)N2CCCC2)c1 | > 49.7 |
| CC(=O)N/C(=C\c1ccccc1)C(=O)OCC(=O)c1c(N)n(C)c(=O)n(C)c1=O | 18.2 (≈ 45.5 µM) |
| COC(=O)c1cc(C(=O)N2CCOCC2)cc([N+](=O)[O-])c1 | > 44.1 |
| COc1cc2nc(NC(=O)c3ccccc3)sc(=O)c2cc1OC | < 0.4 |
| Cc1ccccc1NC(=O)NC(C)(C)CC(C)(C)C | 1.3 (≈ 4.95 µM) |
| O=[N+]([O-])c1cc(O)c(O)c([N+](=O)[O-])c1 | > 30 |
| CCCC(=O)N1CCN(c2nc3ccc(CC)cc3s2)CC1 | 13.5 (≈ 42.5 µM) |
| CS(=O)(=O)c1ccccc1C(=O)Nc1cccc2ncccc12 | 35.9 (≈ 110 µM) |
| COc1ccc(C(=O)Nc2ccc(N3CCN(C)CC3)cc2)cc1 | 42.7 (≈ 131 µM) |
| CN1C2CCC1CC(NC(=O)CSCc1ccc(Cl)cc1Cl)C2 (stereo not given) | > 56 |
| Cc1nn(CC(=O)NC2CCC(C)CC2)c(=O)c(C#N)c1C (stereo not given) | > 45.4 |

| Structure (SMILES) | solubility kinetic [µg/mL] |
| --- | --- |
| S=c1[nH]cc(-c2ccccc2)[nH]1 | > 26.4 |
| COc1nc(C)ccc1-c1noc(-c2cccnc2)n1 | 14.6 (≈ 54.4 µM) |
| CC(C)N1CCN(c2ccc(S(=O)(=O)N3CCOCC3)cn2)CC1 | > 53.2 |
| COc1ccc(C(=O)CC(=O)Nc2ccc([N+](=O)[O-])cc2)cc1 | 2.6 (≈ 8.27 µM) |
| Cc1ccc(C(=O)N(C)Cc2nc3ccccc3c(=O)[nH]2)cc1NC(=O)c1ccco1 | > 62.5 |
| Cc1nc(-c2ccc(-c3ccon3)s2)no1 | 16.6 (≈ 71.2 µM) |
| COCCCn1c(=O)c2ccccc2n(Cc2ccccc2C)c1=O | > 50.8 |
| COc1cc(CO)ccc1Oc1nc2ccccc2n2cnnc12 | > 48.3 |
| COc1ccc(C(=O)O/N=C(\N)c2ccccc2)cc1 | 27.1 (≈ 100 µM) |
| CCN(CC(=O)NCc1ccc(Cl)cc1)C(=O)c1sccc1C | > 52.6 |
| CC(CCc1ccccc1)N1CCN(C)CC1 (stereo not given) | 33.2 (≈ 143 µM) |
| CCOc1ccc(Nc2cc(C)c3ccccc3n2)cc1 | < 0.3 |
| COc1ccc2c(c1)CCC/C2=N\OC(=O)c1ccccc1F | < 0.7 |
| O=[N+]([O-])c1ccc(O)c([N+](=O)[O-])c1 | > 27.6 |
| NC(=S)c1c(Cl)cc(C(F)(F)F)cc1Cl | 40.6 (≈ 148 µM) |
| COc1ccc(OCCNC(=O)Nc2cc(F)c(F)cc2Cl)cc1 | < 0.4 |
| N#Cc1ccc(/C=C\c2nccc3c2[nH]c2ccccc23)cc1 | 1.3 (≈ 4.4 µM) |
| O=C1CN=C(c2ccccc2)c2cc([N+](=O)[O-])ccc2N1 | > 42.2 |
| O=C(NCc1ccc2c(c1)OCO2)c1cc(Cl)ccc1Cl | 1.7 (≈ 5.24 µM) |
| Nc1cc(=O)[nH]c(SCC(=O)Nc2ccc([N+](=O)[O-])cc2)n1 | > 48.2 |
| Cc1cccc(C(=O)N[C@H](C(=O)Nc2ccc(C)c(S(=O)(=O)N3CCOCC3)c2)C(C)C)c1 | 5.4 (≈ 11.4 µM) |
| COc1cccc(NC(=O)C(=O)NCCCN2CCCC2=O)c1 | > 47.9 |
| CC1(NC(=O)Nc2cccc3ccccc23)CCS(=O)(=O)C1 (stereo not given) | 43 (≈ 135 µM) |
| O=C(NC1CCN(C(=O)Nc2cccc(Cl)c2)CC1)c1ccco1 | 46.1 (≈ 133 µM) |

| Structure (SMILES) | solubility kinetic [µg/mL] |
| --- | --- |
| O=C(COC(=O)c1cccc(OC(F)F)c1)NCC1CCCO1 (stereo not given) | > 49.4 |
| N/C(=N\OC(=O)Cc1ccccc1)c1cccc(Br)c1 | 1.1 (≈ 3.3 µM) |
| CCCn1cnc2cc(NC(=O)c3cccs3)ccc21 | > 42.8 |
| Cc1cccc(Nc2nc(-c3ccc(O)cc3O)cs2)n1 | 4.7 (≈ 15.7 µM) |
| Cc1ccc(C(C)C)cc1S(=O)(=O)Nc1ccncc1 | 3.3 (≈ 11.4 µM) |
| C[C@H](NC(=O)C(c1ccccc1)c1ccccc1)c1ccccc1 | 8.5 (≈ 26.9 µM) |
| CCCCCCCOc1ccc(C2(C)NC(=O)NC2=O)cc1 (stereo not given) | 9.3 (≈ 30.6 µM) |
| Cc1cccnc1NC(=S)NC(=O)c1oc2ccccc2c1C | 4.7 (≈ 14.4 µM) |
| CC1CC(C)CN(C(=O)c2ccc3nc[nH]c3c2)C1 (stereo not given) | > 38.6 |
| O=C(NCCOC(=O)c1ccccc1)c1ccc([N+](=O)[O-])cc1 | 14 (≈ 44.5 µM) |
| O=C(N/C(=C\c1ccc(Cl)cc1)C(=O)N1CCOCC1)c1ccco1 | > 54.1 |
| COC(=O)c1cc(NC(=O)Cc2cccs2)cc(C(=O)OC)c1 | 19.5 (≈ 58.5 µM) |
| Cc1ccc2nsnc2c1NC(=O)Cc1ccc(Cl)cc1 | 0.7 (≈ 2.2 µM) |
| CC(=O)c1ccc[n+](CC(=O)NC(C)c2ccccc2)c1.[Cl-] (stereo not given) | > 47.8 |
| CN(C)CCn1c(N)nc2ccccc21 | > 30.6 |
| COc1ccccc1Cn1c(C)nc2ccccc21 | 37 (≈ 147 µM) |
| Cc1cc(C)n2nc(SCC(=O)Nc3ccc(F)cc3[N+](=O)[O-])nc2n1 | > 56.5 |
| CCCn1c(SCC(=O)N2CCc3ccccc3C2)nc(O)cc1=O | > 53.9 |
| CC1(C)CC(NC(=O)c2ccc(Cl)cc2)CC(C)(C)N1 | > 44.2 |
| O=C(c1cnc2ccccc2n1)N1CCN(c2ccc(C(F)(F)F)cn2)CC1 | 1 (≈ 2.58 µM) |
| COc1ccc2cc(C(=O)N3CCN(c4ccccc4OC)CC3)[nH]c2c1 | 2.9 (≈ 7.94 µM) |
| O=C(C1CCCCC1)N1CCc2ccccc21 | 27.2 (≈ 119 µM) |
| CCOC(=O)N1CCN(c2ccc(S(=O)(=O)N3CCOCC3)cn2)CC1 | 47 (≈ 122 µM) |
| O=C(Nc1ccc2[nH]ccc2c1)c1ccccc1 | 31.9 (≈ 135 µM) |

| Structure (SMILES) | solubility kinetic [µg/mL] |
| --- | --- |
| CC(C)(C)C(=O)OC/C(N)=N/OC(=O)c1ccccc1 | > 41.7 |
| CC1CCCC(NC(=O)CNC(=O)c2cccs2)C1C (stereo not given) | > 44.2 |
| CCOc1ccc(-c2nc(CCl)cs2)cc1OC.Cl | 27.2 |
| COc1ccc(CNC(=O)N2CCN(c3ccccc3)CC2)cc1 | 3.5 (≈ 10.8 µM) |
| Cc1ccc2sc(=O)[nH]c2c1 | 19.4 (≈ 117 µM) |
| Cc1ccc(C)n1-c1cccc(C(=O)Nc2ccccc2)c1 | 13.9 (≈ 47.9 µM) |
| CCOC(=O)CSc1nc(-c2ccccc2)nc2ccc(C)cc12 | < 0.4 |
| COc1ccccc1NC(=O)CSc1nc(SC)ns1 | 32.8 (≈ 100 µM) |
| C(CNC1C2CC3CC(C2)CC1C3)CN1CCOCC1.Cl (stereo not given) | > 52.7 |
| COc1ccc(N2CCN(S(=O)(=O)c3cnc[nH]3)CC2)cc1 | 3 (≈ 9.31 µM) |
| CCCCN(C(C)=O)C1CC(=O)N(c2ccc(OCCC)cc2)C1=O (stereo not given) | > 52 |
| O=C(O)c1cc2nccc(-c3ccco3)n2n1 | > 34.4 |
| C=C(c1ccccc1)c1ccc(N(C)C)cc1 | 2.3 (≈ 10.3 µM) |
| NC(=O)C1CCN(Cc2nc(-c3cccs3)no2)CC1 | > 43.9 |
| c1ccc(Nc2ccnc(Nc3ccccc3)n2)cc1 | 6.7 (≈ 25.5 µM) |
| O=C(CN1C(=O)C(=O)N(C2CCCC2)C1=O)Nc1ccccc1OC(F)F | > 57.2 |
| O=C(OCC(=O)N1CCc2ccccc21)c1ccccc1F | 1.7 (≈ 5.68 µM) |
| O=C(Nc1ccccc1F)Nc1cccnc1Cl | 7.8 (≈ 29.4 µM) |
| COc1ccc(CCNC(=O)c2ccc(OCc3c(C)noc3C)c(OC)c2)cc1 | 2.3 (≈ 5.6 µM) |
| N/C(=N\OC(=O)c1cccnc1)c1ccccc1Cl | 38.9 (≈ 141 µM) |
| Clc1ccc2scc(CN3CCCC3)c2c1 | 35.3 (≈ 140 µM) |
| c1ccc(-c2nc3cccnc3nc2-c2ccccc2)cc1 | 33.1 (≈ 117 µM) |
| Cc1ccccc1/C=C/c1cc[n+](C)cc1.[I-] | > 50.6 |
| COc1cccc(NC(=O)CCN2C(=O)c3cccc([N+](=O)[O-])c3C2=O)c1 | > 55.4 |

| Structure (SMILES) | solubility kinetic [µg/mL] |
| --- | --- |
| COc1ccc(C(CCNCc2ccc(OC(C)C)cc2)C(C)C)cc1 (stereo not given) | 49.4 (≈ 139 µM) |
| COc1ccc(NC(=O)c2nc(SC)ncc2Cl)cc1 | 8.2 (≈ 26.5 µM) |
| Cc1cc(NS(=O)(=O)c2ccc(C(C)C)cc2)no1 | 40.2 (≈ 143 µM) |
| CC(CC(=O)O)CC(=O)Nc1ccc(Br)cc1 (stereo not given) | > 45 |
| Cc1nc(C(F)(F)F)ccc1C(=O)N1CCCCC1 | 36.5 (≈ 134 µM) |
| Cc1ccc(NC(=O)C(C)OC(=O)/C=C/c2ccccc2)cc1 (stereo not given) | 4 (≈ 12.9 µM) |
| COc1ccc(C(C)NC(=O)Nc2ccc(C(C)=O)cc2)cc1OC (stereo not given) | 47 (≈ 137 µM) |
| O=C(O)c1ccc(CNC(=O)c2ccc(C(F)(F)F)cc2)cc1 | > 48.5 |
| O=C(Nc1ccc(F)cc1)c1cc(Cl)sc1Cl | 1.9 (≈ 6.55 µM) |
| COc1ccc(Nc2oc(-c3ccc(F)cc3)nc2C#N)cc1 | < 0.2 |
| COc1ccc2nc(SC)c(C#N)cc2c1 | < 0.2 |
| CCOC(=O)c1cc(C#N)c(SCC(=O)O)[nH]c1=O | 38.8 (≈ 137 µM) |
| Nc1nc(NCC2CCCO2)nc(Nc2cccc(F)c2)c1[N+](=O)[O-] (stereo not given) | < 0.1 |
| COc1cc(C(C)=O)ccc1OCC(=O)NC(=O)Nc1ccc(C)cc1C | 14.1 (≈ 38.1 µM) |
| O=C1CCCN1CC1CCN(Cc2nc(CC3CC3)no2)CC1 | 42.9 (≈ 135 µM) |
| C=CCn1c(O)c(C(C)=NC(C)c2ccccc2)c(=O)[nH]c1=O (stereo not given) | > 47 |
| O=C(CN1C(=O)C(=O)N(CCC2=CCCCC2)C1=O)c1c[nH]c2ccccc12 | 3.2 (≈ 8.43 µM) |
| CC(=O)Nc1ccc(SCC(=O)Nc2ccc3c(c2)OCCO3)cc1 | > 53.8 |
| CC1CC=C(c2ccccc2)C(=S)N1 (stereo not given) | > 30.5 |
| O=C(CNC(=O)c1cccs1)NCC(=O)OCC(=O)c1ccccc1 | > 54.1 |
| COc1ccc2[nH]c3c(=O)n(CCN4CCOCC4)cnc3c2c1 | > 49.3 |
| Cn1cc(C(=O)C(=O)NC2CCCCC2)c2ccccc21 | 31.8 (≈ 112 µM) |
| COc1ccc(N2Cc3ccccc3C2=O)cc1 | 12.8 (≈ 53.5 µM) |
| O=C(O)c1cc(=O)[nH]c2c(Cl)cccc12 | > 33.5 |
